Data on 30 compounds can be found in patent publication US20090264415A2 (priority 2004, published 2009).

Like-named read-outs stand apart in the source and are kept apart here.

For assay [1], the system named is peripheral blood mononuclear cells (PBMC) stimulated with allogeneic PBMC or EBV-transformed human B cells (RPMI1788). Kind of assay: Mixed lymphocyte reaction (MLR) assay. Format: cell-based. The method in brief:
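Compounds, held as 10 mM DMSO stocks and diluted in culture medium, were added to PBMC stimulated by 30 Gy-irradiated allogeneic PBMC or RPMI1788 cells. Proliferation was read as [3H]-thymidine uptake (1 μCi, final 16 h) after 5 days at 37° C. Inhibition was derived from cpm.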

Assay [2] concerns production of human TNF-α by PBMC in response to LPS. Kind of assay: TNF-α assay (LPS-stimulated PBMC, sandwich ELISA). Format: cell-based. As to the method:
Peripheral blood mononuclear cells (herein referred as PBMC), in response to stimulation by lipopolysaccharide (hereinafter LPS), a gram-negative bacterial endotoxin, produce various […], in particular human TNF-α. Inhibition of the activation of PBMC can therefore be measured by the level of suppression of the production of TNF-α by PBMC in response to stimulation by LPS. Inhibition measurement was performed as follows: PBMC were isolated from heparinized peripheral blood by density gradient centrifugation over Lymphoprep (commercially available from Nycomed, Norway). LPS was then added to the PMBC suspension in complete medium (10^6 cells/ml) at a final concentration of 1 μg/ml. The pteridine derivative to be tested was added at different concentrations (0.1 μM, 1 μM and 10 μM) and the cells were incubated at 37° C. for 72 hours in 5% CO2. The supernatants were collected, then TNF-α concentrations were measured with respectively an anti-TNF-α antibody in a sandwich ELISA (Duo Set ELISA human TNFα, commercially available from R&D Systems, United Kingdom). The colorimetric reading of the ELISA was measured by a Multiskan RC plate reader (commercially available from ThermoLabsystems, Finland) at 450 nm (reference wavelength: 690 nm). Data analysis was performed with Ascent software 2.6. (also from ThermoLabsystems, Finland): a standard curve (recombinant human TNFα) was drawn and the amount (pg/ml) of each sample on the standard curve was determined. The % suppression of human TNFα production by the pyrido[3,2-d]pyrimidine derivatives of the invention was calculated using the formula: [formula]
Background: ELISA stands for enzyme-linked immunosorbent assay.

Setting [3] is: 50% suppression of the MLR, [3H]-thymidine incorporation, read-out: MLR.
The mark [4] stands for this setting: LPS 1 μg/ml, 72 hours, read-out: TNF α.
Setting [5] is: Homo sapiens, RPMI-1788, 50% suppression of the MLR, [3H]-thymidine incorporation, read-out: MLR.
Setting [6] is: Homo sapiens, PBMC, LPS 1 μg/ml, 72 hours, read-out: TNF α.

For the compound `COc1nc(N2CCN(C(=O)Nc3cccc(C)c3)CC2)c2nc(-c3ccc(OC)c(OC)c3)ccc2n1` [Example 90, 2-methoxy-4-[(N-3-methyl-phenylcarbamoyl)-piperazin-1-yl]-6-(3,4-dimethoxy-phenyl)-pyrido[3,2-d]pyrimidine], the IC50 in assay [1] (setting [3]) came out at 0.14 µM; in assay [2] (setting [4]) it was 0.5 µM.
On to `Clc1ccc(-c2ccc3ncnc(N4CCOCC4)c3n2)cc1` [Example 124, 4-morpholino-6-(4-chlorophenyl)-pyrido[3,2-d]pyrimidine], for which the values for the IC50 in assay [1] (setting [5]) and in assay [2] (setting [6]) were 7.2 µM and 10 µM, respectively.
Regarding `COc1ccc(-c2ccc3ncnc(N4CCN(C(=O)Nc5cccc(Cl)c5)CC4)c3n2)cc1OCC1CC1` [Example 215, 4-[N-(3-chloro-phenylcarbamoyl)-piperazin-1-yl]-6-(3-cyclopropylmethoxy-4-methoxy-phenyl)-pyrido[3,2-d]pyrimidine], the IC50 in assay [1] (setting [5]) came to 0.2 µM; in assay [2] (setting [6]) it was 0.8 µM.
Taken in the same sequence, the figures for `COc1ccc(-c2ccc3nc(N)nc(NC4CCN(C(=O)OC(C)(C)C)CC4)c3n2)cc1OC` [Example 255, 2-amino-4-[(1-Boc-piperidin-4-yl)amino]-6-(3,4-dimethoxyphenyl)-pyrido[3,2-d]pyrimidine] were 0.06 µM and 0.04 µM.
As for `COc1ccc(-c2ccc3nc(N)nc(N4CC[C@H](N)C4)c3n2)cc1OC` [Example 219, 2-amino-4-[(S)-3-(amino)pyrrolidine]-6-(3,4-dimethoxyphenyl)-pyrido[3,2-d]pyrimidine], the IC50 in assay [1] (setting [5]) was determined as 5.5 µM; in assay [2] (setting [6]) it was 1.9 µM.
Take `COc1ccc(-c2ccc3ncnc(N4CCN(CCOc5ccccc5)CC4)c3n2)cc1OC` [Example 5, 4-[(2-phenoxyethyl)-piperazin-1-yl]-6-(3,4-dimethoxyphenyl)-pyrido[3,2-d]pyrimidine]: the IC50 is 0.1 µM in assay [1] (setting [3]) and 0.65 µM in assay [2] (setting [4]).
Regarding `COc1ccc(-c2ccc3nc(N)nc(N4CCN(C(=O)Nc5cc(Cl)nc(Cl)c5)CC4)c3n2)cc1OC` [Example 55, 2-amino-4(N-2,6-dichloro-pyridinyl-carbamoyl-piperazin-1-yl)-6-(3,4-dimethoxyphenyl)-pyrido[3,2-d]pyrimidine], the IC50 was 0.3 µM in assay [1] (setting [3]) and 0.4 µM in assay [2] (setting [4]).
On to `COc1ccc(-c2ccc3nc(N)nc(N4CCOCC4)c3n2)cc1C` [Example 163, 2-amino-4-(morpholino)-6-(3-methyl-4-methoxyphenyl)pyrido[3,2-d]pyrimidine], for which the IC50 amounted to 3.6 µM in assay [1] (setting [5]) and 6.5 µM in assay [2] (setting [6]).
With `COc1ccc(-c2ccc3nc(N)nc(N4CCN(C)CC4)c3n2)cc1OC` [Example 31, 2-amino-4-(N-methyl-piperazino)-6-(3,4-dimethoxyphenyl)-pyrido[3,2-d]pyrimidine], the IC50 in assay [1] (setting [5]) is 0.9 µM; in assay [2] (setting [6]) it was 0.8 µM.
Consider `COc1ccc(-c2ccc3ncnc(N4CCNCC4)c3n2)cc1OC` [Example 107, 4-(N-piperazin-1-yl)-6-(3,4-dimethoxyphenyl)-pyrido[3,2-d]-pyrimidine], for which the IC50 in assay [1] (setting [3]) stood at 3.8 µM; in assay [2] (setting [4]) it was 2.7 µM.
With `COc1ccc(-c2ccc3nc(N)nc(N4CC[C@@H](NC(=O)COc5ccc(Cl)cc5)C4)c3n2)cc1OC` [Example 267], the IC50 in assay [1] (setting [5]) is 0.7 µM; in assay [2] (setting [6]) it was 2.5 µM.
Regarding `COc1ccc(-c2ccc3nc(N(C)C)nc(N4CCN(C(=O)Nc5cccc(C)c5)CC4)c3n2)cc1OC` [Example 15], the IC50 was determined as 0.4 µM in assay [1] (setting [3]) and 3.3 µM in assay [2] (setting [4]).
Consider `Nc1nc(N2CCN(CC(=O)Nc3nccs3)CC2)c2nc(-c3ccc4c(c3)OCCO4)ccc2n1` [Example 201], for which the results for the IC50 in assay [1] (setting [5]) and in assay [2] (setting [6]) were 0.8 µM and 3.4 µM, respectively.
Take `Cc1cccc(NC(=O)N2CCN(c3nc(N)nc4ccc(-c5ccc6c(c5)OCO6)nc34)CC2)c1` [Example 196, 2-amino-4-[N-(3-methyl-phenyl-carbamoyl)-piperazin-1-yl]-6-(3,4-methylenedioxyphenyl)-pyrido[3,2-d]pyrimidine]: the IC50 was 0.03 µM in assay [1] (setting [5]) and 5.3 µM in assay [2] (setting [6]).
Consider `Cc1noc(C)c1-c1ccc2nc(N)nc(N3CCOCC3)c2n1` [Example 246, 2-amino-4-morpholino-6-[4-(3,5-dimethylisoxazolyl)]-pyrido[3,2-d]pyrimidine], for which the IC50 stood at 5.5 µM in assay [1] (setting [3]) and 1.6 µM in assay [2] (setting [4]).
Turning to `Nc1nc(N2CCOCC2)c2nc(-c3ccc4c(c3)OCCO4)ccc2n1` [Example 165, 2-amino-4-(morpholino)-6-(1,4-benzodioxane-phenyl)pyrido[3,2-d]pyrimidine], the values for the IC50 in assay [1] (setting [3]) and in assay [2] (setting [4]) were 0.6 µM and 0.9 µM, respectively.
In the case of `COc1ccc(-c2ccc3ncnc(N4CCNCC4)c3n2)cc1C` [Example 116, 4-(piperazin-1-yl)-6-(3-methyl-4-methoxyphenyl)-pyrido[3,2-d]pyrimidine], the IC50 worked out at 5.1 µM in assay [1] (setting [5]) and 8.1 µM in assay [2] (setting [6]).
Regarding `COc1ccc(-c2ccc3nc(N)nc(N4CCOCC4)c3n2)cc1Cl` [Example 164, 2-amino-4-(morpholino)-6-(3-chloro-4-methoxyphenyl)pyrido[3,2-d]pyrimidine], the IC50 in assay [1] (setting [5]) is 0.6 µM; in assay [2] (setting [6]), 1.5 µM.
Take `COc1cc(-c2ccc3nc(N)nc(N4CCOCC4)c3n2)ccc1OC(C)C` [Example 99, 2-amino-4-(N-morpholino)-6-(4-isopropoxy-3-methoxy-phenyl)-pyrido[3,2-d]pyrimidine]: the IC50 in assay [1] (setting [3]) came to 0.7 µM; in assay [2] (setting [4]), 1 µM.
With `CCOc1ccc(-c2ccc3nc(N)nc(N4CCN(C(=O)Nc5ccc(F)cc5)CC4)c3n2)cc1OC` [Example 102], the IC50 in assay [1] (setting [3]) was found to be 0.04 µM; in assay [2] (setting [4]), 0.6 µM.
Turning to `COc1ccc(-c2ccc3nc(N)nc(NCc4ccccn4)c3n2)cc1OC` [Example 35, 2-amino-4-[2-(aminomethyl)pyridino]-6-(3,4-dimethoxyphenyl)-pyrido[3,2-d]pyrimidine], the IC50 was 0.8 µM in assay [1] (setting [3]) and 0.7 µM in assay [2] (setting [4]).
For the compound `Nc1nc(N2CCOCC2)c2nc(-c3ccc(F)c(F)c3)ccc2n1` [Example 243, 2-amino-4-morpholino-6-(3,4-difluorophenyl)-pyrido[3,2-d]pyrimidine], the IC50 in assay [1] (setting [5]) worked out at 2.3 µM; in assay [2] (setting [6]), 6 µM.
For `Cc1cc(-c2ccc3nc(N)nc(N4CCOCC4)c3n2)ccc1F` [Example 244, 2-amino-4-morpholino-6-(4-fluoro-3-methylphenyl)-pyrido[3,2-d]pyrimidine], the IC50 in assay [1] (setting [5]) came out at 3.8 µM; in assay [2] (setting [6]), 7.2 µM.
For the compound `CC(=O)N1CCN(c2nc(N)nc3ccc(-c4ccc5c(c4)OCO5)nc23)CC1` [Example 190, 2-amino-4-[N-acetyl-piperazin-1-yl]-6-(3,4-methylenedioxyphenyl)-pyrido[3,2-d]pyrimidine], the IC50 in assay [1] (setting [5]) came to 0.8 µM; in assay [2] (setting [6]), 4.8 µM.
As for `COc1ccc(-c2ccc3nc(N)nc(NC4CCCN(C(=O)OC(C)(C)C)C4)c3n2)cc1OC` (stereo not drawn) [Example 257, 2-amino-4-[(1-Boc-piperidin-3-yl)amino]-6-(3,4-dimethoxyphenyl)-pyrido[3,2-d]pyrimidine], the IC50 in assay [1] (setting [5]) was determined as 0.3 µM; in assay [2] (setting [6]) it was 0.6 µM.
Taken in the same sequence, the figures for `Nc1nc(N2CCOCC2)c2nc(-c3cccs3)ccc2n1` [Example 238, 2-amino-4-morpholino-6-(2-thienyl)-pyrido[3,2-d]pyrimidine] were 0.8 µM and 2.8 µM.
Regarding `COc1ccc(-c2ccc3nc(N)nc(NCC(OC)OC)c3n2)cc1OC` [Example 34, 2-amino-4-(2,2-dimethoxyethylamino)-6-(3,4-dimethoxyphenyl)pyrido[3,2-d]pyrimidine], the IC50 was determined as 0.8 µM in assay [1] (Homo sapiens, RPMI-1788, read-out: MLR (μM)) and 0.6 µM in assay [2] (Homo sapiens, PBMC, 72 h, read-out: TNF α (μM)).
For `CCOc1ccc(-c2ccc3nc(N)nc(N4CCOCC4)c3n2)cc1OC` [Example 97, 2-amino-4-(N-morpholino)-6-(4-ethoxy-3-methoxyphenyl)-pyrido[3,2-d]pyrimidine], the IC50 is 0.5 µM in assay [1] (setting [3]) and 0.3 µM in assay [2] (setting [4]).
With `COc1cc(-c2ccc3nc(N)nc(N4CCN(C(=O)Nc5cccc(C)c5)CC4)c3n2)ccc1O` [Example 104, 2-amino-4-[(N-3-methyl-phenyl-carbamoyl)-piperazin-1-yl]-6-(4-hydroxy-3-methoxyphenyl)-pyrido[3,2-d]pyrimidine], the IC50 in assay [1] (setting [3]) amounted to 0.4 µM; in assay [2] (setting [4]) it was 0.3 µM.
As to `Nc1nc(N2CCOCC2)c2nc(-c3ccco3)ccc2n1` [Example 232, 2-amino-4-morpholino-6-(2-furan)-pyrido[3,2-d]pyrimidine], the IC50 in assay [1] (setting [3]) and in assay [2] (setting [4]) was 5.3 µM throughout.
